According to patent US9670227B2, “Thienopyrimidine derivatives, a process for their preparation and pharmaceutical compositions containing them” (LES LABORATOIRES SERVIER, priority 2013, dated 2017):
Like-named read-outs stand apart in the source and are kept apart here.

What was measured:
Mcl-1 protein = Mcl-1 protein (UniProtKB primary accession number: Q07820) (Homo sapiens, UniProt Q07820); assay: Inhibition of Mcl-1 by fluorescence polarisation, Method 1; type: binding; conditions: fluorescence polarisation test; Method 2 values are underlined in the patent (underlining not visible here); read-out: IC50 (M) Mcl-1 FP
Summary of the method: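 Compounds were tested as 11-point serial dilutions at 5% final DMSO against 5 nM Mcl-1 with 1 nM fluorescein-labelled ligand in 10 mM HEPES, 150 mM NaCl, 0.05% Tween 20, pH 7.4. Relative binding potency was read by fluorescence polarisation.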

[1] = test system: H929 multiple myeloma tumour line; assay: In vitro cytotoxicity, Microculture Tetrazolium Assay; type: cell-based; conditions: H929 cells, 48 hours exposure, MTT, read-out: IC50 (μM) MTT H929
Experimental: The cytotoxicity studies were carried out on the H929 multiple myeloma tumour line.
The cells are distributed onto microplates and exposed to the test compounds for 48 hours.

Sequence of Mcl-1 protein (Q07820 whole entry): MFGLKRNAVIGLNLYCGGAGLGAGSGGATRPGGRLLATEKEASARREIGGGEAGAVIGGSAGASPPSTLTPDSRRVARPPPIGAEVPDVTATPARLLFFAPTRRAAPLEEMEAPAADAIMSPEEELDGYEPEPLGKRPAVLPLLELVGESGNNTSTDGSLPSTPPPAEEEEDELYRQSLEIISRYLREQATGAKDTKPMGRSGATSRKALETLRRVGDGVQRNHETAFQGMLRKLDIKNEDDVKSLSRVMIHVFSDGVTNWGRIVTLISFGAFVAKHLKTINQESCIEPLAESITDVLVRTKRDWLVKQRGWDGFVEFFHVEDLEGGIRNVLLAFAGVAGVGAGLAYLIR

IC50 (Mcl-1 protein) [M]	SMILES	IC50 ([1]; Homo sapiens, NCI-H929, 48 h) [µM]	IC50 [1] [µM]
5.6e-09	COc1cccc(-c2nccc(COc3ccccc3CC(Oc3ncnc4sc(-c5ccc(F)cc5)c(-c5ccc(OCCN6CCN(C)CC6)c(Cl)c5C)c34)C(=O)O)n2)c1 [Example 112, (2R)-2-{[(5Sa)-5-{3-chloro-2-methyl-4-[2-(4-methylpiperazin-1-yl)ethoxy]phenyl}-6-(4-fluorophenyl)thieno[2,3-d]pyrimidin-4-yl]oxy}-3-(2-{[2-(3-methoxyphenyl)pyrimidin-4-yl]methoxy}phenyl)propanoic acid]	0.011	
2.9e-09	Cc1ncccc1-c1nccc(COc2ccccc2CC(Oc2ncnc3sc(-c4ccc(F)cc4)c(-c4ccc(OCCN5CCN(C)CC5)c(Cl)c4C)c23)C(=O)O)n1 [Example 116, (2R)-2-{[(5Sa)-5-{3-chloro-2-methyl-4-[2-(4-methylpiperazin-1-yl)ethoxy]phenyl}-6-(4-fluorophenyl)thieno[2,3-d]pyrimidin-4-yl]oxy}-3-(2-{[2-(2-methylpyridin-3-yl)pyrimidin-4-yl]methoxy}phenyl)propanoic acid]	0.007	
4.8e-09	Cc1c(-c2c(-c3ccc(F)cc3)sc3ncnc(OC(Cc4ccccc4OCc4ccnc(-c5ccnc(Cl)c5)n4)C(=O)O)c23)ccc(OCCN2CCN(C)CC2)c1Cl [Example 119, (2R)-2-{[(5Sa)-5-{3-chloro-2-methyl-4-[2-(4-methylpiperazin-1-yl)ethoxy]phenyl}-6-(4-fluorophenyl)thieno[2,3-d]pyrimidin-4-yl]oxy}-3-(2-{[2-(2-chloropyridin-4-yl)pyrimidin-4-yl]methoxy}phenyl)propanoic acid]	0.02	
5.6e-09	Cc1sccc1-c1nccc(COc2ccccc2CC(Oc2ncnc3sc(-c4ccc(F)cc4)c(-c4ccc(OCCN5CCN(C)CC5)c(Cl)c4C)c23)C(=O)O)n1 [Example 121, (2R)-2-{[(5Sa)-5-{3-chloro-2-methyl-4-[2-(4-methylpiperazin-1-yl)ethoxy]phenyl}-6-(4-fluorophenyl)thieno[2,3-d]pyrimidin-4-yl]oxy}-3-(2-{[2-(2-methylthiophen-3-yl)pyrimidin-4-yl]methoxy}phenyl)propanoic acid]	0.015	
3.8e-09	Cc1cncc(-c2nccc(COc3ccccc3CC(Oc3ncnc4sc(-c5ccc(F)cc5)c(-c5ccc(OCCN6CCN(C)CC6)c(Cl)c5C)c34)C(=O)O)n2)c1 [Example 122, (2R)-2-{[(5Sa)-5-{3-chloro-2-methyl-4-[2-(4-methylpiperazin-1-yl)ethoxy]phenyl}-6-(4-fluorophenyl)thieno[2,3-d]pyrimidin-4-yl]oxy}-3-(2-{[2-(5-methylpyridin-3-yl)pyrimidin-4-yl]methoxy}phenyl)propanoic acid]	0.01	
4.3e-09	Cc1cscc1-c1nccc(COc2ccccc2CC(Oc2ncnc3sc(-c4ccc(F)cc4)c(-c4ccc(OCCN5CCN(C)CC5)c(Cl)c4C)c23)C(=O)O)n1 [Example 124, (2R)-2-{[(5Sa)-5-{3-chloro-2-methyl-4-[2-(4-methylpiperazin-1-yl)ethoxy]phenyl}-6-(4-fluorophenyl)thieno[2,3-d]pyrimidin-4-yl]oxy}-3-(2-{[2-(4-methylthiophen-3-yl)pyrimidin-4-yl]methoxy}phenyl)propanoic acid]	0.024	
7.3e-09	Cc1c(-c2c(-c3ccc(F)cc3)sc3ncnc(OC(Cc4ccccc4OCc4ccn[nH]4)C(=O)O)c23)ccc(OCCN2CCN(C)CC2)c1Cl [Example 125, (2R)-2-{[(5Sa)-5-{3-chloro-2-methyl-4-[2-(4-methylpiperazin-1-yl)ethoxy]phenyl}-6-(4-fluorophenyl)thieno[2,3-d]pyrimidin-4-yl]oxy}-3-[2-(1H-pyrazol-5-ylmethoxy)phenyl]propanoic acid]	0.354	
4e-09	Cc1c(-c2c(-c3ccc(F)cc3)sc3ncnc(OC(Cc4ccccc4OCc4ccnc(-c5ccncc5)n4)C(=O)O)c23)ccc(OCCN(C)C)c1Cl [Example 128, (2R)-2-{[(5Sa)-5-{3-chloro-4-[2-(dimethylamino)ethoxy]-2-methylphenyl}-6-(4-fluorophenyl)thieno[2,3-d]pyrimidin-4-yl]oxy}-3-(2-{[2-(pyridin-4-yl)pyrimidin-4-yl]methoxy}phenyl)propanoic acid]	0.018	
2.2e-09	Cc1c(-c2c(-c3ccc(F)cc3)sc3ncnc(OC(Cc4ccccc4OCc4ccnc(N5CCOCC5)n4)C(=O)O)c23)ccc(OCCN(C)C)c1Cl [Example 129, (2R)-2-{[(5Sa)-5-{3-chloro-4-[2-(dimethylamino)ethoxy]-2-methylphenyl}-6-(4-fluorophenyl)thieno[2,3-d]pyrimidin-4-yl]oxy}-3-(2-{[2-(morpholin-4-yl)pyrimidin-4-yl]methoxy}phenyl)propanoic acid]	0.069	
7.7e-09	Cc1cc(-c2nccc(COc3ccccc3CC(Oc3ncnc4sc(-c5ccc(F)cc5)c(-c5ccc(OCCN(C)C)c(Cl)c5C)c34)C(=O)O)n2)ccn1 [Example 136, (2R)-2-{[(5Sa)-5-{3-chloro-4-[2-(dimethylamino)ethoxy]-2-methylphenyl}-6-(4-fluorophenyl)thieno[2,3-d]pyrimidin-4-yl]oxy}-3-(2-{[2-(2-methylpyridin-4-yl)pyrimidin-4-yl]methoxy}phenyl)propanoic acid]	0.015	
5.5e-09	Cc1cnccc1-c1nccc(COc2ccccc2CC(Oc2ncnc3sc(-c4ccc(F)cc4)c(-c4ccc(OCCN(C)C)c(Cl)c4C)c23)C(=O)O)n1 [Example 137, (2R)-2-{[(5Sa)-5-{3-chloro-4-[2-(dimethylamino)ethoxy]-2-methylphenyl}-6-(4-fluorophenyl)thieno[2,3-d]pyrimidin-4-yl]oxy}-3-(2-{[2-(3-methylpyridin-4-yl)pyrimidin-4-yl]methoxy}phenyl)propanoic acid]	0.007	

Second part, the compound before the results:

SMILES	IC50 (Mcl-1 protein) [M]	IC50 ([1]; Homo sapiens, NCI-H929, 48 h) [µM]	IC50 [1] [µM]
Cc1c(-c2c(-c3ccc(F)cc3)sc3ncnc(OC(Cc4ccccc4OCC4CCCO4)C(=O)O)c23)ccc(OCCN(C)C)c1Cl [Example 126, (2R)-2-{[(5Sa)-5-{3-chloro-4-[2-(dimethylamino)ethoxy]-2-methylphenyl}-6-(4-fluorophenyl)thieno[2,3-d]pyrimidin-4-yl]oxy}-3-{2-[(2R)-tetrahydrofuran-2-ylmethoxy]phenyl}propanoic acid]	1.4e-08	0.7	
Cc1c(-c2c(-c3ccc(F)cc3)sc3ncnc(OC(Cc4ccccc4OCC(F)(F)F)C(=O)O)c23)ccc(OCCN(C)C)c1Cl [Example 127, (2R)-2-{[(5Sa)-5-{3-chloro-4-[2-(dimethylamino)ethoxy]-2-methylphenyl}-6-(4-fluorophenyl)thieno[2,3-d]pyrimidin-4-yl]oxy}-3-[2-(2,2,2-trifluoroethoxy)phenyl]propanoic acid]	2e-08	0.558	
CCOc1nccc(COc2ccccc2CC(Oc2ncnc3sc(-c4ccc(F)cc4)c(-c4ccc(OCCN(C)C)c(Cl)c4C)c23)C(=O)O)n1 [Example 130, (2R)-2-{[(5Sa)-5-{3-chloro-4-[2-(dimethylamino)ethoxy]-2-methylphenyl}-6-(4-fluorophenyl)thieno[2,3-d]pyrimidin-4-yl]oxy}-3-{2-[(2-ethoxypyrimidin-4-yl)methoxy]phenyl}propanoic acid]	3.4e-09	0.065	
Cc1c(-c2c(-c3ccc(F)cc3)sc3ncnc(OC(Cc4ccccc4OCc4ccnc(OCC(F)(F)F)n4)C(=O)O)c23)ccc(OCCN(C)C)c1Cl [Example 131, (2R)-2-{[(5Sa)-5-{3-chloro-4-[2-(dimethylamino)ethoxy]-2-methylphenyl}-6-(4-fluorophenyl)thieno[2,3-d]pyrimidin-4-yl]oxy}-3-(2-{[2-(2,2,2-trifluoroethoxy)pyrimidin-4-yl]methoxy}phenyl)propanoic acid]	7.9e-09	0.039	
Cc1c(-c2c(-c3ccc(F)cc3)sc3ncnc(OC(Cc4ccccc4OCc4ccnn4CC(F)(F)F)C(=O)O)c23)ccc(OCCN(C)C)c1Cl [Example 132, (2R)-2-{[(5Sa)-5-{3-chloro-4-[2-(dimethylamino)ethoxy]-2-methylphenyl}-6-(4-fluorophenyl)thieno[2,3-d]pyrimidin-4-yl]oxy}-3-(2-{[1-(2,2,2-trifluoroethyl)-1H-pyrazol-5-yl]methoxy}phenyl)propanoic acid]	4.8e-09	0.102	
CCCCn1nccc1COc1ccccc1CC(Oc1ncnc2sc(-c3ccc(F)cc3)c(-c3ccc(OCCN(C)C)c(Cl)c3C)c12)C(=O)O [Example 133, (2R)-3-{2-[(1-butyl-1H-pyrazol-5-yl)methoxy]phenyl}-2-{[(5Sa)-5-{3-chloro-4-[2-(dimethylamino)ethoxy]-2-methylphenyl}-6-(4-fluorophenyl)thieno[2,3-d]pyrimidin-4-yl]oxy}propanoic acid]	3.4e-09	0.099	
Cc1c(-c2c(-c3ccc(F)cc3)sc3ncnc(OC(Cc4ccccc4OCc4cnccn4)C(=O)O)c23)ccc(OCCN(C)C)c1Cl [Example 134, (2R)-2-{[(5Sa)-5-{3-chloro-4-[2-(dimethylamino)ethoxy]-2-methylphenyl}-6-(4-fluorophenyl)thieno[2,3-d]pyrimidin-4-yl]oxy}-3-[2-(pyrazin-2-ylmethoxy)phenyl]propanoic acid]	1.3e-08	0.193	
Cc1c(-c2c(-c3ccc(F)cc3)sc3ncnc(OC(Cc4ccccc4OCc4cnccn4)C(=O)O)c23)ccc(OCC2CCN(C)C2)c1Cl [Example 139, (2R)-2-{[(5Sa)-5-(3-chloro-2-methyl-4-{[(3R)-1-methylpyrrolidin-3-yl]methoxy}phenyl)-6-(4-fluorophenyl)thieno[2,3-d]pyrimidin-4-yl]oxy}-3-[2-(pyrazin-2-ylmethoxy)phenyl]propanoic acid]	8.5e-08		0.636
